According to the PolyMetriX glass transition set:
± gives the standard deviation of the reports.

Row | glass transition temperature [°C] | SMILES
1 | 98.00 | *c1cc(Br)c(-c2c(Br)cc(N3C(=O)c4ccc(-c5ccc6c(c5)C(=O)N(*)C6=O)cc4C3=O)cc2C(=O)OCCCCCCCCCCCCCC)c(C(=O)OCCCCCCCCCCCCCC)c1 (repeat unit)
2 | 350.00 | *CC(=O)Nc1ccc(C2(c3ccc(NC(=O)Cn4c(=O)c5cc6c(=O)n(*)c(=O)c6cc5c4=O)cc3)c3ccccc3-c3ccccc32)cc1 (repeat unit)
3 | 66.00 | *CC(*)c1ccccc1C(=O)OCCCC (repeat unit)
4 | 40.00 | *CCCCCOC(=O)c1ccc(-c2ccc(-c3ccc(C(=O)O*)cc3)cc2)cc1 (repeat unit)
5 | 38.00 | *Oc1ccc(C(=O)OCCCCOC(=O)c2ccc(*)cc2)cc1 (repeat unit)
6 | 327.00 | *C(=O)Nc1ccc(NC(=O)c2ccc3c(c2)C(=O)N(c2c(C)cc(C)c(N4C(=O)c5ccc(*)cc5C4=O)c2C)C3=O)cc1 (repeat unit)
7 | 296.00 | *c1ccc(NC(=O)c2cccc(C(=O)Nc3ccc(-n4c(=O)c5cc6c(=O)n(*)c(=O)c6cc5c4=O)cc3)c2)cc1 (repeat unit)
8 | 250.00 | *Oc1c(Cl)cc(C(=C(Cl)Cl)c2cc(Cl)c(OC(*)=O)c(Cl)c2)cc1Cl (repeat unit)
9 | 37.00 | *CC(*)C(=O)OC1CCCCCCCCCCC1 (repeat unit)
10 | 186.00 | *c1ccc(-c2nc3cc(S(=O)(=O)c4ccc5nc(-c6ccccc6)c(-c6ccc(-n7c(=O)c8cc9c(=O)n(*)c(=O)c9cc8c7=O)cc6)nc5c4)ccc3nc2-c2ccccc2)cc1 (repeat unit)
11 | 45.00 | *O[Si](C)(C)Oc1ccc(C(C)(C)c2ccc(*)cc2)cc1 (repeat unit)
12 | 396.00 | *Oc1ccc(C2(c3ccc(Oc4ccc5c(=O)n6c7cc(Oc8ccc9c(c8)nc8c%10ccc(*)c%11cccc(c(=O)n98)c%11%10)ccc7nc6c6cccc4c56)cc3)c3ccccc3-c3ccccc32)cc1 (repeat unit)
13 | 329.00 | *C(=O)Nc1ccc(Cc2ccc(NC(=O)c3ccc4c(c3)C(=O)N(c3c(C)cc(-c5cc(C)c(N6C(=O)c7ccc(*)cc7C6=O)c(C)c5)cc3C)C4=O)c(C)c2)cc1C (repeat unit)
14 | 214.00 | *c1ccc(Oc2cccc(Oc3ccc(N4C(=O)c5cccc(Oc6ccc(Oc7cccc8c7C(=O)N(*)C8=O)cc6)c5C4=O)cc3)c2)cc1 (repeat unit)
15 | 67.00 | *CCCS(=O)(=O)CCCS(=O)(=O)CCCOC(=O)c1cccc(C(=O)O*)c1 (repeat unit)
16 | 174.00 | */C=C/c1cc(OCC2CC3CC2C2CCCC32)c(*)cc1OC (repeat unit)
17 | 98.00 | *CC(*)c1ccc(C(=O)c2ccccc2)cc1 (repeat unit)
18 | 347.50 | *c1ccc(C(=O)Nc2ccc(NC(=O)c3ccc(Oc4ccc(-c5nn(*)c(=O)c6ccccc56)c5ccccc45)cc3)cc2)cc1 (repeat unit)
19 | 252.00 | *Oc1cccc2ccc(Oc3ccc(NC(=O)c4ccc(C(c5ccc(C(=O)Nc6ccc(*)cc6)cc5)(C(F)(F)F)C(F)(F)F)cc4)cc3)cc12 (repeat unit)
20 | 170.00 | *CCN(CCN1C(=O)c2ccc(C(c3ccc4c(c3)C(=O)N(*)C4=O)(C(F)(F)F)C(F)(F)F)cc2C1=O)c1ccc(/N=N/c2ccc(C=O)cc2)cc1 (repeat unit)
21 | 0.00 | *CCCCCCCC(=O)OCCOC(=O)CCCCCCCC1OCC2(COC(*)OC2)CO1 (repeat unit)
22 | -16.10 | *O[Si](C)(C)C#C[Si](C)(C)C#C[Si](C)(C)C#C[Si](C)(C)C#C[Si](C)(C)C#C[Si](*)(C)C (repeat unit)
23 | 322.00 | *Cc1ccc2nc(-c3cc(-c4nc5ccc(*)cc5c(=O)o4)cc(N4C(=O)c5ccccc5C4=O)c3)oc(=O)c2c1 (repeat unit)
24 | 17.00 | *c1sc(*)c(CCCCCCN(CC)c2ccc(/N=N/c3ccc([N+](=O)[O-])cc3)cc2)c1CCCCCC (repeat unit)
25 | 281.00 | *c1ccc(Oc2ccc(C(=O)c3ccc4cc(C(=O)c5ccc(Oc6ccc(-c7nc(-c8ccc(-c9nc(*)c(-c%10ccccc%10)[nH]9)cc8)[nH]c7-c7ccccc7)cc6)cc5)ccc4c3)cc2)cc1 (repeat unit)

Row | glass transition temperature [°C] | SMILES
26 | -13.00 | *CCCCCCOC(=O)OCCCCCCOC(=O)OCCCCCCOc1ccc(Oc2ccc(O*)cc2)cc1 (repeat unit)
27 | 234.50 | *Oc1ccc(S(=O)(=O)c2ccc(Oc3ccc(/C=C/c4ccc(*)cc4)cc3)cc2)cc1 (repeat unit)
28 | 188.00 | *Oc1ccc(S(=O)(=O)c2ccc(Oc3ccc(/C=C4\CCCC/C(=C\c5ccc(Oc6ccc(S(=O)(=O)c7ccc(Oc8ccc(C(C)(C)c9ccc(*)cc9)cc8)cc7)cc6)cc5)C4=O)cc3)cc2)cc1 (repeat unit)
29 | 147.00 | *C(F)(F)C1(F)C(F)(F)C(*)(F)C(F)(F)C(F)(Cl)C1(F)F (repeat unit)
30 | 154.00 | *Oc1ccc(Oc2ccc(C(=O)c3cccc(-c4cccc(C(=O)c5ccc(*)cc5)c4)c3)cc2)cc1 (repeat unit)
31 | 50.00 | *CC(C)(C)CS(=O)(=O)CC(C)(C)COC(=O)O* (repeat unit)
32 | 178.00 | *c1cccc(OCCCCOc2cccc(N3C(=O)c4ccc(-c5cccc6c5C(=O)N(*)C6=O)cc4C3=O)c2)c1 (repeat unit)
33 | 315.00 | *C(=O)Nc1cc(NC(=O)c2ccc3[nH]c(-c4cccc(-c5nc6cc(*)ccc6[nH]5)c4)nc3c2)cc(-c2nc3ccccc3[nH]2)c1 (repeat unit)
34 | 300.00 | *C(=O)c1ccc2c(c1)C(=O)N(c1ccc(C(=O)Nc3ccc(N4C(=O)c5ccc(*)cc5C4=O)cc3)cc1)C2=O (repeat unit)
35 | 205.50 | *Nc1ccc(NC(=O)c2ccc(NC(=O)CCCCCCCCCCC(=O)Nc3ccc(C(*)=O)cc3)cc2)cc1C(=O)OCCCCCCCCCCCC (repeat unit)
36 | 165.00 | *CCCC1(CCCNC(=O)c2ccccc2-c2ccccc2C(=O)N*)c2ccccc2-c2ccccc21 (repeat unit)
37 | 27.80 | *CC(*)(C)C(=O)OCc1cc(Cl)ccc1Cl (repeat unit)
38 | 240.00 | *CC(*)c1ccc(B(Oc2cccc3cccnc23)c2ccc(C(C)(C)C)cc2)cc1 (repeat unit)
39 | 150.00 | *CCCCC(=O)NNC(=O)c1ccc(C(=O)NNC(=O)CCCCOc2ccc(O*)c(C)c2)cc1 (repeat unit)
40 | 230.00 | *C1C(=O)N(c2ccccc2C(=O)OCC)C(=O)C1* (repeat unit)
41 | 203.00 | *Nc1cccc(CCc2ccc(NC(=O)c3cccc(C(*)=O)c3)cc2)c1 (repeat unit)
42 | 47.00 | *CCCCCCNC(=O)CCCCCCCCCCCCCCCCC(=O)N* (repeat unit)
43 | 178.00 | *c1ccc(NC(=O)CCCCCCCC(=O)Nc2ccc(S(*)(=O)=O)cc2)cc1 (repeat unit)
44 | -38.00 | *CC(CCCCCCCCCC)C(CCCCCCCCCC)COC(=O)c1ccc(C(=O)O*)cc1 (repeat unit)
45 | 100.00 | *O[Si](C)(C)c1cccc2c1ccc1c([Si](*)(C)C)cccc12 (repeat unit)
46 | 122.00 | *Oc1ccc(Oc2ccc(Oc3ccc(C(C)(C)c4ccc(*)cc4)cc3)cc2)cc1 (repeat unit)
47 | -18.00 | *CC(*)OC(=O)C(F)(F)C(F)(F)C(F)(F)C(F)(F)C(F)(F)C(F)(F)C(F)(F)C(F)(F)C(F)(F)F (repeat unit)
48 | 317.40 | *c1c(C)cc(C(c2cc(C(F)(F)F)cc(C(F)(F)F)c2)c2cc(C)c(N3C(=O)c4ccc(-c5ccc6c(c5)C(=O)N(*)C6=O)cc4C3=O)c(C)c2)cc1C (repeat unit)
49 | 98.00 | *CC(*)(C)C(=O)OCCN(CC)c1ccc([N+](=O)[O-])cc1 (repeat unit)
50 | 244.00 | *c1ccc(Oc2ccc(Oc3ccc(-c4nc(*)nc(-c5ccccc5)n4)cc3)cc2)cc1 (repeat unit)

Row | SMILES | glass transition temperature [°C]
51 | *CC(*)(F)C(F)(F)F (repeat unit) | 49.00
52 | *CC(*)c1ccc(C(O)C(F)(F)F)cc1 (repeat unit) | 110.00
53 | *CC(*)OC(=O)c1ccccc1Cl (repeat unit) | 55.8
54 | *OC(F)(F)C(F)(F)C(*)(F)F (repeat unit) | -109.00
55 | */C=C/C1CC(*)C2C3CCC(C3)C12 (repeat unit) | 207.40
56 | *CC(*)OC(=O)C1CCCC1 (repeat unit) | 36.00
57 | *Cc1ccc(CSS*)cc1 (repeat unit) | 23.00
58 | *CC(*)CC(C)C (repeat unit) | 35.20
59 | *CCCCCCCC(*)C (repeat unit) | -58.00
60 | *CC(*)c1ccc(C(=O)CC)cc1 (repeat unit) | 102.00
61 | */C=C/C1CC(*)C(C#N)([Si](C)(C)C)C1 (repeat unit) | 211.00
62 | *O[Si](*)(C)OCCOCCOCCOC (repeat unit) | -120.10
63 | *CC(*)C(=O)NCCCCCC(=O)O (repeat unit) | 68.00
64 | *CC(*)C(F)(F)C(F)(F)C(F)(F)F (repeat unit) [Poly[(heptafluoropropyl)ethylene] ] | 58 ± 0.6
65 | *C(*)C(=O)OCC (repeat unit) | 13.50
66 | *c1cccc(P(=O)(c2ccc(Oc3ccc(C45CC6CC(CC(C6)C4)C5)cc3)cc2)c2cccc(-n3c(=O)c4cc5c(=O)n(*)c(=O)c5cc4c3=O)c2)c1 (repeat unit) | 330.00
67 | *CC(*)CCCCCCCC (repeat unit) | -35.00
68 | *CC(*)OC(=O)OCC(F)(F)F (repeat unit) | 57.00
69 | *Oc1ccc(C(C)(C)c2ccc(OC(=O)OCCN(CCOC(*)=O)c3ccc4[nH]c5ccccc5c4c3)cc2)cc1 (repeat unit) | 90.00
